Data reported in patent publication US11053204B2, “Pyrimidinyloxy benzene derivatives as herbicides” (FMC Corporation, priority 2015, dated 2021).

How the values were obtained:
Type in all cases: in vivo
[1] = test system: nightshade (eastern black nightshade, Solanum ptycanthum); experiment: Test C preemergence, plant response rating
[2] = test system: barnyardgrass (Echinochloa crus-galli); experiment: Test C flooded paddy test, plant response rating; details: flood, scale 0 to 100
Description: (§1) At the same time, plants selected from these crop and weed species and also chickweed (common chickweed, Stellaria media), buckwheat, wild (wild buckwheat, Polygonum convolvulus), wild mustard (Sinapis arvensis), field poppy (Papaver rhoeas), field violet (Viola arvensis), geranium, cutleaf (cutleaf geranium, Geranium dissectum), Canada thistle (Cirsium arvense), and speedwell (bird's-eye speedwell, Veronica persica), were planted in pots containing Sunshine Redi-Earth® planting medium comprising spaghnum peat moss, vermiculite, starter nutrients and dolomitic limestone and treated with postemergence applications of test chemicals formulated in the same manner. Plants ranged in height from 2 to 18 cm (1- to 4-leaf stage) for postemergence treatments. Treated plants and controls were maintained in a greenhouse for 13 to 15 d, after which time all species were compared to controls and visually evaluated. Plant response ratings, summarized in Table C, are based on a scale of 0 to 100 where 0 is no effect and 100 is complete control. A dash (-) response means no test result.
(§2) Plant species in the flooded paddy test consisted of rice (Oryza sativa), sedge, umbrella (small-flower umbrella sedge Cyperus difformis), ducksalad (Heteranthera limosa), and barnyardgrass (Echinochloa crus-galli) grown to the 2-leaf stage for testing. At time of treatment, test pots were flooded to 3 cm above the soil surface, treated by application of test compounds directly to the paddy water, and then maintained at that water depth for the duration of the test.

[3] = test system: ducksalad (Heteranthera limosa); experiment: Test C flooded paddy test, plant response rating; details: flood, scale 0 to 100
Description: as §1, §2

rice (Oryza sativa) = experiment: Test C flooded paddy test, plant response rating; details: flood, scale 0 to 100
Description: as §1, §2

[4] = test system: sedge, umbrella (small-flower umbrella sedge Cyperus difformis); experiment: Test C flooded paddy test, plant response rating; details: flood, scale 0 to 100
Description: as §1, §2

SMILES: C=C(Br)COC(=O)c1c(Br)cccc1Oc1ncc(Cl)cn1 [Compound 61]
- Plant response rating, Nightshade ([1]; 16 g ai/ha, scale 0 to 100): 60
- Plant response rating, Nightshade ([1]; 31 g ai/ha, scale 0 to 100): 60
- Plant response rating, Nightshade ([1]; 62 g ai/ha, scale 0 to 100): 50
- Plant response rating, Nightshade ([1]; 125 g ai/ha, scale of 0 to 100): 75
- Barnyardgrass plant response rating ([2]; 31 g ai/ha): 0
- Barnyardgrass plant response rating ([2]; 62 g ai/ha): 0
- Barnyardgrass plant response rating ([2]; 125 g ai/ha): 20
- Barnyardgrass plant response rating ([2]; 250 g ai/ha): 40
- Ducksalad plant response rating ([3]; 31 g ai/ha): 50
- Ducksalad plant response rating ([3]; 62 g ai/ha): 75
- Ducksalad plant response rating ([3]; 125 g ai/ha): 90
- Ducksalad plant response rating ([3]; 250 g ai/ha): 90
- Rice plant response rating (rice (Oryza sativa); 31 g ai/ha): 20
- Rice plant response rating (rice (Oryza sativa); 62 g ai/ha): 20
- Rice plant response rating (rice (Oryza sativa); 125 g ai/ha): 20
- Rice plant response rating (rice (Oryza sativa); 250 g ai/ha): 20
- Sedge, Umbrella plant response rating ([4]; 31 g ai/ha): 80
- Sedge, Umbrella plant response rating ([4]; 62 g ai/ha): 80
- Sedge, Umbrella plant response rating ([4]; 125 g ai/ha): 85
- Sedge, Umbrella plant response rating ([4]; 250 g ai/ha): 85

SMILES: CCCC(=O)c1c(Br)cccc1Oc1ncc(Cl)cn1 [Compound 75]
- Plant response rating, Nightshade ([1]; 16 g ai/ha, scale 0 to 100): 40
- Plant response rating, Nightshade ([1]; 31 g ai/ha, scale 0 to 100): 75
- Plant response rating, Nightshade ([1]; 62 g ai/ha, scale 0 to 100): 75
- Plant response rating, Nightshade ([1]; 125 g ai/ha, scale of 0 to 100): 80

SMILES: CCCCC(=O)c1c(Br)cccc1Oc1ncc(Cl)cn1 [Compound 79]
- Plant response rating, Nightshade ([1]; 16 g ai/ha, scale 0 to 100): 30
- Plant response rating, Nightshade ([1]; 31 g ai/ha, scale 0 to 100): 65
- Plant response rating, Nightshade ([1]; 62 g ai/ha, scale 0 to 100): 80
- Plant response rating, Nightshade ([1]; 125 g ai/ha, scale of 0 to 100): 95

SMILES: N#Cc1cccc(Oc2ncc(Cl)cn2)c1COCCC(F)(F)F [Compound 80]
- Plant response rating, Nightshade ([1]; 31 g ai/ha, scale 0 to 100): 70
- Plant response rating, Nightshade ([1]; 62 g ai/ha, scale 0 to 100): 85
- Plant response rating, Nightshade ([1]; 125 g ai/ha, scale of 0 to 100): 90

SMILES: O=C(CCCCC(F)(F)F)c1c(Br)cccc1Oc1ncc(Cl)cn1 [Compound 82]
- Plant response rating, Nightshade ([1]; 31 g ai/ha, scale 0 to 100): 20
- Plant response rating, Nightshade ([1]; 62 g ai/ha, scale 0 to 100): 40
- Plant response rating, Nightshade ([1]; 125 g ai/ha, scale of 0 to 100): 85

SMILES: FC(F)(F)CCCc1c(Br)cccc1Oc1ncc(Cl)cn1 [Compound 89]
- Plant response rating, Nightshade ([1]; 31 g ai/ha, scale 0 to 100): 75
- Plant response rating, Nightshade ([1]; 62 g ai/ha, scale 0 to 100): 65
- Plant response rating, Nightshade ([1]; 125 g ai/ha, scale of 0 to 100): 85

SMILES: O=C(CCC(F)(F)F)c1c(Br)cccc1Oc1ncc(Cl)cn1 [Compound 92]
- Barnyardgrass plant response rating ([2]; 31 g ai/ha): 0
- Barnyardgrass plant response rating ([2]; 62 g ai/ha): 0
- Barnyardgrass plant response rating ([2]; 125 g ai/ha): 20
- Barnyardgrass plant response rating ([2]; 250 g ai/ha): 40
- Ducksalad plant response rating ([3]; 31 g ai/ha): 30
- Ducksalad plant response rating ([3]; 62 g ai/ha): 60
- Ducksalad plant response rating ([3]; 125 g ai/ha): 95
- Ducksalad plant response rating ([3]; 250 g ai/ha): 100
- Rice plant response rating (rice (Oryza sativa); 31 g ai/ha): 10
- Rice plant response rating (rice (Oryza sativa); 62 g ai/ha): 15
- Rice plant response rating (rice (Oryza sativa); 125 g ai/ha): 15
- Rice plant response rating (rice (Oryza sativa); 250 g ai/ha): 15
- Sedge, Umbrella plant response rating ([4]; 31 g ai/ha): 20
- Sedge, Umbrella plant response rating ([4]; 62 g ai/ha): 60
- Sedge, Umbrella plant response rating ([4]; 125 g ai/ha): 90
- Sedge, Umbrella plant response rating ([4]; 250 g ai/ha): 100

SMILES: O=C(CCC(F)(F)F)c1c(Cl)cccc1Oc1ncc(Cl)cn1 [Compound 107, 1-[2-chloro-6-[(5-chloro-2-pyrimidinyl)oxy]phenyl]-4,4,4-trifluoro-1-butanone]
- Plant response rating, Nightshade ([1]; 31 g ai/ha, scale 0 to 100): 60
- Plant response rating, Nightshade ([1]; 62 g ai/ha, scale 0 to 100): 80
- Plant response rating, Nightshade ([1]; 125 g ai/ha, scale of 0 to 100): 90

SMILES: FC(F)(F)CCCCc1c(Br)cccc1Oc1ncc(Cl)cn1 [Compound 138]
- Plant response rating, Nightshade ([1]; 31 g ai/ha, scale 0 to 100): 50
- Plant response rating, Nightshade ([1]; 62 g ai/ha, scale 0 to 100): 80
- Plant response rating, Nightshade ([1]; 125 g ai/ha, scale of 0 to 100): 80

SMILES: N#CC(CCCC(F)(F)F)c1ccccc1Oc1ncc(Cl)cn1 (centres unmarked) [Compound 144]
- Plant response rating, Nightshade ([1]; 31 g ai/ha, scale 0 to 100): 65
- Plant response rating, Nightshade ([1]; 62 g ai/ha, scale 0 to 100): 90
- Plant response rating, Nightshade ([1]; 125 g ai/ha, scale of 0 to 100): 100
